From patent US20120214862A1, “MODULATION OF FACTOR 7 EXPRESSION” (ISIS Pharmaceuticals, Inc., priority 2009, published 2012) come the findings set out here.

In the oligonucleotide strings, read from the 5' end, every base follows the letter of its sugar. An asterisk marks phosphorothioate; unmarked linkages are phosphodiester. Other units and linkages are bracketed, terminal groups are in braces. A string of capitals states the bases alone. e = 2'-O-(2-methoxyethyl) (MOE); [5mC] = 5-methylcytosine; d = 2'-deoxy (DNA)

The test system of this series is human Factor 7 mRNA. Nature of the series: Inhibition of human Factor 7 mRNA by 2-10-2 MOE shortmers in HepB3 cells, electroporation, 1,000 nM. It is filed as cell-based. Particulars: electroporation, 1,000 nM oligonucleotide, approximately 24 hours, relative to untreated control cells. An excerpt: Short antisense oligonucleotides (shortmers) were designed to target a Factor 7 nucleic acid. The shortmers in Table 17 were designed as 2-10-2 MOE gapmers. The gapmers are 14 nucleotides in length, wherein the central gap segment is comprised of 10 2′-deoxynucleotides and is flanked on both sides (in the 5′ and 3′ directions) by wings comprising 2 nucleotides each. Each nucleotide in the 5′ wing segment and each nucleotide in the 3′ wing segment has a 2′-MOE modification. The internucleoside linkages throughout each gapmer are phosphorothioate (P═S) linkages. All cytidine residues throughout each gapmer are 5-methylcytidines.
Shortmers were evaluated for their ability to reduce human Factor 7 mRNA in HepB3 cells and compared with one 5-10-5 chimeric oligonucleotide from Table 16, ISIS 407939. HepB3 cells at a density of 20,000 cells per well in a 96-well plate were transfected using electroporation with 1,000 nM of antisense oligonucleotide. After a treatment period of approximately 24 hours, RNA was isolated from the cells and Factor 7 mRNA levels were measured by real-time RT-PCR, as described herein. Factor 7 mRNA levels were adjusted according to total RNA content as measured by RIBOGREEN®. Results are presented in Table 17 as percent inhibition of Factor 7 mRNA, relative to untreated control cells. ISIS 407939 is the first oligonucleotide in […] to which the shortmers were compared, and is marked by an asterisk (*).
For “435661 (antisense eG*eG*dA*d[5mC]*dA*d[5mC]*d[5mC]*d[5mC]*d[5mC]*dG*dT*d[5mC]*eT*eG) [compound 435661]”, the “% inhibition of human Factor 7 mRNA” value was 18%.
Regarding “435686 (antisense e[5mC]*eA*dG*dT*dG*dA*dG*dG*dA*d[5mC]*d[5mC]*dA*e[5mC]*eG) [compound 435686]”, the “% inhibition of human Factor 7 mRNA” value came out at 31%.
To “435826 (antisense eA*eA*dG*dT*dG*dG*d[5mC]*dT*dG*dG*d[5mC]*dT*eG*eA) [compound 435826]” belongs 27%; to “435682 (antisense eG*eG*dA*dT*dG*dA*dT*dG*dA*d[5mC]*d[5mC]*dT*eG*e[5mC]) [compound 435682]”, 36%.
Take “435817 (antisense e[5mC]*eT*dG*dA*dG*d[5mC]*dT*dT*dG*dG*d[5mC]*dA*e[5mC]*e[5mC]) [compound 435817]”: the “% inhibition of human Factor 7 mRNA” value stood at 39%.
For “435798 (antisense eA*eG*d[5mC]*d[5mC]*dA*dG*dA*d[5mC]*dT*dT*dT*d[5mC]*e[5mC]*eT) [compound 435798]” the value was 54%.
To “435634 (antisense eT*eG*dA*dA*dA*dT*d[5mC]*dT*d[5mC]*dT*dG*d[5mC]*eA*eG) [compound 435634]” belongs 5%; to “435843 (antisense eG*e[5mC]*dT*dG*dG*dA*dG*d[5mC]*dT*dG*dA*dG*e[5mC]*e[5mC]) [compound 435843]”, 0%; to “435730 (antisense eT*eA*dA*dA*d[5mC]*dA*dA*d[5mC]*d[5mC]*dG*d[5mC]*d[5mC]*eT*eT) [compound 435730]”, 49%.
For “435789 (antisense e[5mC]*eA*dT*dG*dT*dT*dA*dG*d[5mC]*d[5mC]*dT*dT*eT*eG) [compound 435789]” the value was 3%; for “435497 (antisense eG*eG*dG*dA*dG*dA*d[5mC]*d[5mC]*d[5mC]*dT*dG*dG*eT*eG) [compound 435497]”, 27%; for “435502 (antisense eG*eT*dA*d[5mC]*dT*dG*dG*dG*dA*dG*dA*d[5mC]*e[5mC]*e[5mC]) [compound 435502]”, 69%.
Consider “435772 (antisense eG*e[5mC]*dA*dG*dT*d[5mC]*d[5mC]*d[5mC]*dT*dG*d[5mC]*dT*e[5mC]*eA) [compound 435772]”, for which the “% inhibition of human Factor 7 mRNA” value was 42%.
For “435731 (antisense eG*eT*dG*dA*dG*dA*dG*d[5mC]*dT*dA*dA*dA*e[5mC]*eA) [compound 435731]”, the “% inhibition of human Factor 7 mRNA” value came to 11%.
To “435487 (antisense eA*eG*dT*d[5mC]*d[5mC]*dT*dG*dG*dG*dT*d[5mC]*dA*eT*e[5mC]) [compound 435487]” belongs 36%; to “435765 (antisense e[5mC]*eA*dA*dA*dG*dT*dT*d[5mC]*dT*d[5mC]*dT*dG*e[5mC]*e[5mC]) [compound 435765]”, 1%; to “435790 (antisense eA*eT*dG*dA*d[5mC]*d[5mC]*dA*dT*d[5mC]*d[5mC]*dT*d[5mC]*eA*eA) [compound 435790]”, 1%.
To “435721 (antisense eT*eA*dA*dG*dG*dA*dG*dG*d[5mC]*dT*d[5mC]*dA*eG*e[5mC]) [compound 435721]” belongs 12%; to “435690 (antisense eG*eT*d[5mC]*d[5mC]*dG*dT*dT*d[5mC]*dG*dG*dG*d[5mC]*eA*eG) [compound 435690]”, 55%; to “435745 (antisense eG*eG*dG*dA*dG*d[5mC]*dT*dA*d[5mC]*dA*dG*d[5mC]*e[5mC]*eT) [compound 435745]”, 0%.
To “435489 (antisense e[5mC]*eT*dG*dG*dT*dG*dT*dA*d[5mC]*dA*d[5mC]*d[5mC]*e[5mC]*e[5mC]) [compound 435489]” belongs 72%; to “435501 (antisense eT*eA*d[5mC]*dT*dG*dG*dG*dA*dG*dA*d[5mC]*d[5mC]*e[5mC]*eT) [compound 435501]”, 51%.
Regarding “435741 (antisense eA*eG*dG*dG*dT*dT*d[5mC]*dA*dT*dT*dT*d[5mC]*eA*eG) [compound 435741]”, the “% inhibition of human Factor 7 mRNA” value came to 6%.
For “435782 (antisense e[5mC]*eG*dT*dG*d[5mC]*dG*d[5mC]*dT*d[5mC]*dA*dG*d[5mC]*eT*e[5mC]) [compound 435782]”, the “% inhibition of human Factor 7 mRNA” value turned out to be 36%.
As for “435814 (antisense eT*eG*dA*d[5mC]*dG*dA*dG*dA*dG*dG*dA*d[5mC]*e[5mC]*eA) [compound 435814]”, the “% inhibition of human Factor 7 mRNA” value was 31%.
For “435835 (antisense eT*eT*dA*dT*dT*dT*dG*dG*dG*d[5mC]*dA*dT*eG*eG) [compound 435835]” the value was 7%; for “435803 (antisense eG*eA*dG*dA*dA*dT*dT*dG*d[5mC]*d[5mC]*d[5mC]*dA*eG*eG) [compound 435803]”, 0%.
To “435804 (antisense e[5mC]*eA*dG*dG*dG*dA*d[5mC]*dT*d[5mC]*dT*d[5mC]*dA*eG*e[5mC]) [compound 435804]” belongs 26%.
For “435739 (antisense e[5mC]*eA*dT*d[5mC]*dT*d[5mC]*dA*dG*dA*dG*dG*dA*eT*eG) [compound 435739]” the value was 5%; for “435723 (antisense eG*e[5mC]*d[5mC]*dA*dG*d[5mC]*dA*dG*dA*dT*d[5mC]*dA*e[5mC]*eG) [compound 435723]”, 68%.
For “435658 (antisense eT*e[5mC]*dA*d[5mC]*dT*dG*d[5mC]*dA*dG*dT*dA*d[5mC]*eT*eG) [compound 435658]”, the “% inhibition of human Factor 7 mRNA” value was 60%.
For “435503 (antisense eT*eG*dT*dA*d[5mC]*dT*dG*dG*dG*dA*dG*dA*e[5mC]*e[5mC]) [compound 435503]”, the “% inhibition of human Factor 7 mRNA” value was determined as 17%.
For “435806 (antisense eT*eG*dA*d[5mC]*d[5mC]*d[5mC]*d[5mC]*dA*d[5mC]*dA*dG*dG*eG*eA) [compound 435806]” the value was 7%; for “435718 (antisense eG*e[5mC]*dT*d[5mC]*dG*d[5mC]*dA*dG*dG*dA*dG*dG*eA*e[5mC]) [compound 435718]”, 26%.
To “435802 (antisense eG*eT*d[5mC]*dA*d[5mC]*d[5mC]*dT*dA*dG*dA*d[5mC]*d[5mC]*eA*eA) [compound 435802]” belongs 61%.
To “435693 (antisense eG*eG*d[5mC]*dA*dG*dT*d[5mC]*d[5mC]*dT*dG*dG*dG*eT*e[5mC]) [compound 435693]” belongs 43%; to “435775 (antisense eT*e[5mC]*dT*dG*dG*dA*dA*dG*dG*dA*dA*d[5mC]*eA*eG) [compound 435775]”, 25%; to “435743 (antisense eG*e[5mC]*d[5mC]*dT*d[5mC]*dA*dA*dA*d[5mC]*dA*dT*d[5mC]*eT*eA) [compound 435743]”, 40%.
